± gives the standard deviation of the averaged measurements.
What was measured:
HS-PSS [1] = assay: drug sensitivity score (DSS, CellTiter-Glo viability, 72 h) (DSS (dimensionless)); higher = more sensitive; extreme values may be limits of the assay
In short: (§1)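 Viability of MPNST cell lines and primary human Schwann cells was read as CellTiter-Glo ATP luminescence after 72 h at 37 °C, 5% CO2, in 384-well plates seeded with 750–1000 cells per well. Each compound had been preprinted at five concentrations in 10-fold steps. Signals were scaled between vehicle and positive-control wells, duplicates averaged where present, and fitted with four-parameter logistic curves. Drug sensitivity score and relative IC50 (censored at the top concentration) come from those fits, and percent inhibition is taken at the top concentration.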

HS-Sch-2 [2] = assay: as above
In short: as §1

[3] = test system: HSC1 (primary human Schwann cells); assay: as above
In short: as §1

[4] = test system: HSC2 (primary human Schwann cells); assay: as above
In short: as §1

S1507-2 [5] = assay: as above
In short: as §1

S462 [6] = assay: as above
In short: as §1

ST8814 [7] = assay: as above
In short: as §1

STS26T [8] = assay: as above
In short: as §1

YST-1 [9] = assay: as above
In short: as §1

HS-PSS [10] = assay: drug sensitivity score (DSS, CellTox-Green cytotoxicity, 72 h) (DSS (dimensionless)); higher = more cytotoxic; extreme values may be limits of the assay
In short: (§2)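 MPNST cell lines and primary human Schwann cells were grown for 72 h at 37 °C in 384-well plates containing five 10-fold compound dilutions. CellTox-Green, added before seeding at a final 1:1000 dilution, gave fluorescence from DNA released by disrupted cells, and signals were scaled to vehicle and positive-control wells. Curves were fitted with a four-parameter logistic model. Drug sensitivity score and relative IC50 come from these fits, with IC50 censored at the top concentration.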

[11] = test system: HSC1 (primary human Schwann cells); assay: as above
In short: as §2

[12] = test system: HSC2 (primary human Schwann cells); assay: as above
In short: as §2

S1507-2 [13] = assay: as above
In short: as §2

ST8814 [14] = assay: as above
In short: as §2

STS26T [15] = assay: as above
In short: as §2

HS-PSS [16] = assay: % inhibition of CellTiter-Glo viability at highest tested concentration (72 h), relative to DMSO and benzethonium chloride controls; higher = more inhibition
In short: as §1

HS-Sch-2 [17] = assay: as above
In short: as §1

[18] = test system: HSC1 (primary human Schwann cells); assay: as above
In short: as §1

[19] = test system: HSC2 (primary human Schwann cells); assay: as above
In short: as §1

S1507-2 [20] = assay: as above
In short: as §1

S462 [21] = assay: as above
In short: as §1

ST8814 [22] = assay: as above
In short: as §1

STS26T [23] = assay: as above
In short: as §1

YST-1 [24] = assay: as above
In short: as §1

| SMILES | drug sensitivity score (HS-PSS [1]) | drug sensitivity score (HS-Sch-2 [2]) | drug sensitivity score [3] | drug sensitivity score [4] | drug sensitivity score (S1507-2 [5]) | drug sensitivity score (S462 [6]) | drug sensitivity score (ST8814 [7]) | drug sensitivity score (STS26T [8]) | drug sensitivity score (YST-1 [9]) | drug sensitivity score (HS-PSS [10]) | drug sensitivity score [11] | drug sensitivity score [12] | drug sensitivity score (S1507-2 [13]) | drug sensitivity score (ST8814 [14]) | drug sensitivity score (STS26T [15]) | % inhibition (HS-PSS [16]) [%] | % inhibition (HS-Sch-2 [17]) [%] | % inhibition [18] [%] | % inhibition [19] [%] | % inhibition (S1507-2 [20]) [%] | % inhibition (S462 [21]) [%] | % inhibition (ST8814 [22]) [%] | % inhibition (STS26T [23]) [%] | % inhibition (YST-1 [24]) [%] |
| --- | --- | --- | --- | --- | --- | --- | --- | --- | --- | --- | --- | --- | --- | --- | --- | --- | --- | --- | --- | --- | --- | --- | --- | --- |
| Cc1cc(Nc2cc(CN3CCOCC3)c3nc(C)c(Cc4ccc(Cl)cc4F)n3n2)n[nH]1 [Gandotinib] (max concentration tested 10000 nM) | 7.29 | 9.06 | 10.2 | 10.9 | 10.4 ± 1.9 | 11.7 ± 2.7 | 8.52 | 8.72 | 7.71 | 0.55 | 8.02 | 7.38 | 7.03 ± 1.3 | 5.3 | 3.96 | 68 | 96.6 | 103 | 103 | 101.6 ± 0.37 | 96.5 ± 2.7 | 97.2 | 68.9 | 70.5 |
| CO[C@H]1C[C@@H]2CC[C@@H](C)[C@@](O)(O2)C(=O)C(=O)N2CCCC[C@H]2C(=O)O[C@H]([C@H](C)C[C@@H]2CC[C@@H](OC(=O)C(C)(CO)CO)[C@H](OC)C2)CC(=O)[C@H](C)/C=C(\C)[C@@H](O)[C@@H](OC)C(=O)[C@H](C)C[C@H](C)/C=C/C=C/C=C/1C [Temsirolimus] (max concentration tested 100 nM) | 7.73 | 5.67 | 17.5 | 16.5 | 7.14 ± 2.6 | 6.03 ± 0.88 | 6.83 | 14.4 | 9.18 | 0 | 0 | 0 | 0.915 ± 1.3 | 0 | 0 | 30.8 | 29.2 | 47 | 51.2 | 28.4 ± 1.3 | 31.8 ± 11 | 23.2 | 47.2 | 46.1 |
| Cc1cnc(NC(=O)Nc2cc(Br)c(C)cc2OC[C@@H]2CNCCO2)cn1 [Rabusertib] (max concentration tested 1000 nM) | 0.93 | 4.93 | 0.0015 | 1.36 | 3.39 ± 0.54 | 5.07 ± 0.2 | 0 | 2.75 | 1.96 | 0 | 0.0001 | 0 | 1.21 ± 1.4 | 0 | 1.88 | 17.4 | 84.7 | 11.3 | 22.3 | 51.1 ± 10 | 91.37 ± 0.63 | 2.25 | 36.4 | 32.8 |
| CNC(=O)c1cccc(-c2ccc3c(N4CCOC[C@@H]4C)nc(N4CCOC[C@@H]4C)nc3n2)c1 [AZD2014] (max concentration tested 10000 nM) | 10.4 | 11.7 | 15.2 | 15 | 12.6 ± 1 | 11.1 ± 0.51 | 10.7 | 12 | 17.9 | 0 | 0 | 0 | 0 | 0 | 0 | 69.8 | 71 | 87.4 | 87.1 | 75.49 ± 0.4 | 66.2 ± 1.5 | 78.5 | 75.4 | 79.2 |
| Sc1ncnc2nc[nH]c12 [Mercaptopurine] (max concentration tested 10000 nM) | 1.06 | 7.89 | 0 | 0 | 0 | 5.81 ± 1.6 | 10.2 | 7.5 | 0.53 | 0 | 0 | 0 | 0 | 0 | 0.135 | 18.8 | 59.9 | -2.23 | 3.85 | 7.52 ± 1.2 | 62.5 ± 20 | 43.7 | 74.5 | 13.2 |
| CC1(COc2ccc3c(c2)ncn3-c2ccc3cccc(N4CCC(N)CC4)c3n2)COC1 [Crenolanib] (max concentration tested 10000 nM) | 4.89 | 10.5 | 5.48 | 5.95 | 7 ± 2.5 | 5.16 ± 0.26 | 8.29 | 6.09 | 5.36 | 4.69 | 3.33 | 3.85 | 10.4 ± 4.5 | 7.03 | 5.47 | 101 | 101 | 84.7 | 85.3 | 95.6 ± 0.82 | 95.09 ± 0.94 | 95 | 95.3 | 101 |
